Experimental findings from patent publication US12391685B2, “Inhibitors of RNA-guided nuclease target binding and uses thereof” (THE BROAD INSTITUTE, INC., priority 2018, dated 2025) are described below.

The target in the experiment is SpCas9 (Streptococcus pyogenes serotype M1, UniProt Q99ZW2). Nature of the experiment: Cellular thermal shift assay (CETSA) in WM793 melanoma cells. Format: cell-based, S. pyogenes. As to conditions: 15 μM, 24 h, WM793 cells stably expressing SpCas9. Here is the method:
Cellular Thermal Shift Assay (CETSA). Approximately 1× 10^6 cells pre-incubated with either DMSO or 15 μM BRD0539 for 24 h were resuspended in PBS and transferred to 200 μL PCR tubes. The suspended cells were heated to a different temperature for 3 min followed by lysis in 100 μL RIPA buffer containing protease inhibitors at 4° C. for 30 min. The clear cell lysate was collected by centrifuging the suspensions at 20,000×g for 20 min. The supernatant was transferred to a fresh tube and processed for Western blotting. Western blotting was performed using SDS-PAGE. In a typical experiment, 10 μg of proteins were electrophoresed on a 4-12% Bis-Tris gel and proteins were transferred to a PVDF membrane and probed with primary anti-SpCas9 antibody (abcam #ab191468). The membrane was imaged and bands were quantified using the LI-COR Odyssey imaging system. The CETSA curves were fitted with the equation, y=(U-L)/(1+e^(−(A/T−1)B))+L where, U and L are the upper and lower asymptotes, A is a half-way temperature, and B controls the slope of the sigmoid; temperature T is expressed in K. After the fitting, the data were re-normalized by dividing by U and the Tm was calculated using the formula Tm=AB/(B+log(1−2L/U)).

Each structure is given as a SMILES string.

Chain of SpCas9 (Q99ZW2 whole entry): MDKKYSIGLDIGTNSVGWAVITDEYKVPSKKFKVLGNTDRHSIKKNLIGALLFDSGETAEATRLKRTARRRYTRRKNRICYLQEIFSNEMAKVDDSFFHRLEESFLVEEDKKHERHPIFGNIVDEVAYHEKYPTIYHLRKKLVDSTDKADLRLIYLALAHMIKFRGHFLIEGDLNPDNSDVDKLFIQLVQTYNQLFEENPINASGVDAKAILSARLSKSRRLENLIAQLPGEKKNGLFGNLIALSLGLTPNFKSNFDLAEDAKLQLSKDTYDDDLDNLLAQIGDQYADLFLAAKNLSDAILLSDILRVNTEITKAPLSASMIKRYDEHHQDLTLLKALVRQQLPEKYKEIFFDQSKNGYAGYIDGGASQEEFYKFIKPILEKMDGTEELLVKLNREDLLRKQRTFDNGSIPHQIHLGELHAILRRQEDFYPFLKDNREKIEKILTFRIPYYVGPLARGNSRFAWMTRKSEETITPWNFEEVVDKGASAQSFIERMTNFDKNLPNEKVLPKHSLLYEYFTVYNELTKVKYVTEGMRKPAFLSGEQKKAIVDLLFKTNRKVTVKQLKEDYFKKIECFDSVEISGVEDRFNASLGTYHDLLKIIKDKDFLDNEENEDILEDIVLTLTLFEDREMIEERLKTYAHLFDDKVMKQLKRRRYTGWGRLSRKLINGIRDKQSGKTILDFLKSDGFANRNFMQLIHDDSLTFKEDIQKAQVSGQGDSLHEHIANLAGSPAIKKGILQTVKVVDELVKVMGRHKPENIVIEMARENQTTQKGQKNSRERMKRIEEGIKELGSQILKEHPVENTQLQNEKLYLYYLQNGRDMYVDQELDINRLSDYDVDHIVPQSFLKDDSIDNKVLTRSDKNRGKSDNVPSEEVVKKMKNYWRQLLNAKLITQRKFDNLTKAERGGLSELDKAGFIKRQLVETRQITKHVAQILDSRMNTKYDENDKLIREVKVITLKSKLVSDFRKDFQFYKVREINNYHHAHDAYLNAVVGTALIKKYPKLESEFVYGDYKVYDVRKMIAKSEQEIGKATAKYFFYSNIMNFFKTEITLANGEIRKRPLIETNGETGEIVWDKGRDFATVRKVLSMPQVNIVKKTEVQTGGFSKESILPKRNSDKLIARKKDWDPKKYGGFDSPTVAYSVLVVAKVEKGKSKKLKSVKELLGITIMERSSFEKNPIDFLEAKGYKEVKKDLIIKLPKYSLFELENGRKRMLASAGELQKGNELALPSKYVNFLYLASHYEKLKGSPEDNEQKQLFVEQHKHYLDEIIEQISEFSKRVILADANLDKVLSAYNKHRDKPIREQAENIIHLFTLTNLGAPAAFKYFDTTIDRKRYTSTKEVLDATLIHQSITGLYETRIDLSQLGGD

With `Cc1ccc(S(=O)(=O)N2CC[C@@H]3[C@H](CO)Nc4ccc(-c5ccccc5F)cc4[C@@H]32)cc1` [BRD0539, ((3aR,4R,9bR)-8-(2-fluorophenyl)-1-tosyl-2,3,3a,4,5,9b-hexahydro-1H-pyrrolo[3,2-c]quinolin-4-yl) methanol], the “lowering in the melting temperature of SpCas9” value is approximately 2.5 °C.
